# From patent US20250152585A1, “PHARMACEUTICAL COMPOUND” (Duke Street Bio Limited, priority 2022, published 2025)
# Read-outs that look alike come from different tables or passages of the source.
# Legend:
# [1] = biological target: T1, N-terminally FLAG-tagged PARP2 (amino acids 1-583) (Homo sapiens, UniProt Q9UGN5); assay: PARP2 probe displacement HTRF assay; format: binding; settings: binned Kd
# T1 construct: N-terminally FLAG-tagged PARP2 (amino acids 1-583)
# Description: Data analysis was performed identical as for PARP1.
# [2] = biological target: T2, full length N-terminally FLAG-tagged PARP1 (Homo sapiens, UniProt P09874); assay: PARP1 probe displacement HTRF assay; settings: for Selectivity: PARP1 over PARP2, ratio Kd (PARP2)/Kd (PARP1); for Kd: binned Kd
# T2 sequence (P09874 whole entry): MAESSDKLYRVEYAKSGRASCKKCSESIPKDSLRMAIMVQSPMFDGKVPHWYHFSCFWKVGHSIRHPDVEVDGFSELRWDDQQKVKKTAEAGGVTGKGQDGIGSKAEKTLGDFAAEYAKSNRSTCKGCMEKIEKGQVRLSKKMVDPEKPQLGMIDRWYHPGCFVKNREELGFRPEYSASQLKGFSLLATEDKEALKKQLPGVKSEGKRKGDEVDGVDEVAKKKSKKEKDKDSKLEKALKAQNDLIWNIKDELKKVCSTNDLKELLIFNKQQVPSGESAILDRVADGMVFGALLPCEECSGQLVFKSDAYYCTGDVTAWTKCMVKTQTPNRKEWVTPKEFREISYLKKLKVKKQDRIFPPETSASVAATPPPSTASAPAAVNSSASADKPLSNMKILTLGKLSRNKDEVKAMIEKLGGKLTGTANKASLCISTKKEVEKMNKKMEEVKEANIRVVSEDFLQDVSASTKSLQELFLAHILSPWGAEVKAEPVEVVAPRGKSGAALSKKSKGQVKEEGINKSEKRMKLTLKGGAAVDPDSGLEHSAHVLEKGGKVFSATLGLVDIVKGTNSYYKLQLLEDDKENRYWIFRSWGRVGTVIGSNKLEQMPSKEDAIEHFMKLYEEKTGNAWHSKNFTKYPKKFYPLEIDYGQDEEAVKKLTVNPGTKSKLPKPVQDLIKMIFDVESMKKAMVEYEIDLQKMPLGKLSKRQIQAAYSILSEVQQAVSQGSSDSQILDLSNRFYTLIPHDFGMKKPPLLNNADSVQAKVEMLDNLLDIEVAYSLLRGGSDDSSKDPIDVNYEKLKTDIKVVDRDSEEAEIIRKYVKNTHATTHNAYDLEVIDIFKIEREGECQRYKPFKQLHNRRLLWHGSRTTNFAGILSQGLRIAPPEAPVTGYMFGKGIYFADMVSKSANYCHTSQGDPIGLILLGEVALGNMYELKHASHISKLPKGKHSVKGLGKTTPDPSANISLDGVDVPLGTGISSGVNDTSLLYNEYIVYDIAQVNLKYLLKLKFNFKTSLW
# [3] = biological target: T2, full length N-terminally FLAG-tagged PARP1; assay: PARP1 biochemical DELFIA assay (auto-PARylation); set-up: recombinant full length human N-terminally FLAG-tagged PARP1
# [4] = read-out: PARP1 HTRF, PARP1 probe displacement HTRF
# [5] = binned IC50, PARP1 biochemical DELFIA assay
# [6] = read-out: PARP1 HTRF, probe displacement HTRF
# [7] = binned IC50, biochemical auto-PARylation assay
# T1 sequence (Q9UGN5 whole entry, the tested form may be a part): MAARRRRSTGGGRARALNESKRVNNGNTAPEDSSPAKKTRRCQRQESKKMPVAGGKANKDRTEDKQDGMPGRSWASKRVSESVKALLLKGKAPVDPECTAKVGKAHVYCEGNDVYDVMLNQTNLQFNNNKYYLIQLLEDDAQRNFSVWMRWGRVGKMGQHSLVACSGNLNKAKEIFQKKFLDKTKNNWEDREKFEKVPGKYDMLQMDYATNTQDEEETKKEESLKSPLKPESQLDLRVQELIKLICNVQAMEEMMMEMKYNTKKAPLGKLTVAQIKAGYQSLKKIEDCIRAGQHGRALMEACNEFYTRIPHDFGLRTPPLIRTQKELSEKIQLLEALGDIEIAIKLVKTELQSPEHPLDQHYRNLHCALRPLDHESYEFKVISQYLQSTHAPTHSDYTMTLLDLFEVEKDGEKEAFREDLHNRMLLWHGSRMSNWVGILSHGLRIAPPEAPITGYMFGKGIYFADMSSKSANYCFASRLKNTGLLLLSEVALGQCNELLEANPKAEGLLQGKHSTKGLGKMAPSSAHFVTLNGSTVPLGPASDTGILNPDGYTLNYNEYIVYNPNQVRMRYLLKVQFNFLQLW
Kd ([1]; PARP2 probe displacement HTRF) [nM],"Kd [2, 4] [nM]","IC50 [3, 5] [nM]",Kd ([1]; probe displacement HTRF) [nM],"Kd [2, 6] [nM]","IC50 [3, 7] [nM]","Kd ([2]; PARP1 HTRF, probe displacement HTRF) [nM]","Kd ([2]; PARP1 HTRF, PARP1 probe displacement HTRF) [nM]",Compound,Selectivity ([2]; probe displacement HTRF)
< 10,< 10,< 10,,,,,,"CNC(=O)c1ccc(N2CCC(N3CCC(c4nc5c(c(C(F)(F)F)cn5C)c(=O)[nH]4)C3)CC2)cn1 (single isomer, unassigned) [Compound 170b]",− (− indicates a value of less than 10)
,,,> 10000,< 10,< 10,,,CCc1ccc(C2CC(=O)N(C3CCN(c4ccc(C(=O)NC)nc4)CC3)C2)[nH]c1=O (racemic) [Compound 406rac],+++ (+++ indicate a value of at least 100)
1000 to 10000,< 10,< 10,,,,,,"CNC(=O)c1ccc(N2CCC(N3CCC(c4nc5ccccc5c(=O)[nH]4)C3)CC2)c(C)n1 (single isomer, unassigned) [Compound 125b]",+++ (+++ indicate a value of at least 100)
10 to 100,< 10,< 10,,,,,,"CNC(=O)c1ccc(N2CCC(N3CCC(c4nc5cccc(Cl)c5c(=O)[nH]4)C3)CC2)cn1 (single isomer, unassigned) [Compound 85b]",++ (++ indicates a value of 50 to less than 100)
> 10000,10 to 100,10 to 100,,,,,,CNC(=O)c1ccc(N2CCC(N3CCCC(c4nc5ccccc5c(=O)[nH]4)C3)CC2)c(C(F)F)n1 (racemic) [Compound 156rac],++ (++ indicates a value of 50 to less than 100)
,,,100 to 1000,,< 10,< 10,,"CNC(=O)c1ccc(N2CCC(N3CC4(c5nc6c(c(=O)[nH]5)CCCN6C)CC3C4)CC2)c(F)n1 [Compound 375, 6-fluoro-N-methyl-5-(4-(4-(8-methyl-4-oxo-3,4,5,6,7,8-hexahydropyrido[2,3-d]pyrimidin-2-yl)-2-azabicyclo[2.1.1]hexan-2-yl)piperidin-1-yl)picolinamide]",+ (+ indicates a value of 10 to less than 50)
> 10000,,< 10,,,,,< 10,"CNC(=O)c1ccc(N2CCC(CN3CCC(c4nc5ccccc5c(=O)[nH]4)CC3)CC2)cn1 [Compound 8, N-methyl-5-(4-((4-(4-oxo-3,4-dihydroquinazolin-2-yl)piperidin-1-yl)methyl)piperidin-1-yl)picolinamide]",+++ (+++ indicate a value of at least 100)
,,,100 to 1000,< 10,< 10,,,"N#Cc1nc(C(=O)NC2CC2)ccc1N1CCC(N2CCC(c3cc4cccc(F)c4c(=O)[nH]3)C2)CC1 (single isomer, unassigned) [Compound 410a]",+++ (+++ indicate a value of at least 100)
100 to 1000,< 10,< 10,,,,,,"CNC(=O)c1ccc(N2CCC(N3CCC(c4cc5cccc(F)c5c(=O)[nH]4)C3)CC2)nn1 (single isomer, unassigned) [Compound 209a]",+++ (+++ indicate a value of at least 100)
,,,1000 to 10000,< 10,< 10,,,"CNC(=O)c1ncc(N2CCC(N3CCC(c4cc5cccc(F)c5c(=O)[nH]4)C3)CC2)c(C(F)(F)F)n1 (single isomer, unassigned) [Compound 277a]",+++ (+++ indicate a value of at least 100)
> 10000,10 to 100,10 to 100,,,,,,"CCc1cnc(C2CCCN(C3CCN(c4ccc(C(=O)NC)nc4)CC3)C2)[nH]c1=O (single isomer, unassigned) [Compound 31b]",+++ (+++ indicate a value of at least 100)
100 to 1000,10 to 100,10 to 100,,,,,,"CNC(=O)c1ccc(N2CCC(N3CCC(c4nc5c(c(=O)[nH]4)CCCN5)C3)CC2)cn1 (single isomer, unassigned) [Compound 214a]",++ (++ indicates a value of 50 to less than 100)
,,,10 to 100,< 10,< 10,,,CNC(=O)c1ccc(N2CCC(N3CCC(c4[nH]c(=O)c5ccccc5c4C)C3)CC2)cn1 (racemic) [Compound 237rac],++ (++ indicates a value of 50 to less than 100)
,,,10 to 100,< 10,< 10,,,CNC(=O)c1ccc(N2CCC(N3CCC(c4[nH]c(=O)c5cc(F)ccc5c4F)C3)CC2)c(F)n1 (racemic) [Compound 403rac],+++ (+++ indicate a value of at least 100)
100 to 1000,10 to 100,100 to 1000,,,,,,"O=C(NCCF)c1ccc(N2CCC(N3CCCC(c4nc5ccccc5c(=O)[nH]4)C3)CC2)cn1 (single isomer, unassigned) [Compound 110b]",− (− indicates a value of less than 10)
> 10000,100 to 1000,1000 to 10000,,,,,,"O=c1[nH]c(CC2CCCN(C3CCC(F)(F)CC3)C2)nc2ccccc12 (single isomer, unassigned) [Compound 11a]",− (− indicates a value of less than 10)

Kd ([1]; PARP2 probe displacement HTRF) [nM],"Kd [2, 4] [nM]","IC50 [3, 5] [nM]",Kd ([1]; probe displacement HTRF) [nM],"Kd [2, 6] [nM]","IC50 [3, 7] [nM]","Kd ([2]; PARP1 HTRF, probe displacement HTRF) [nM]","Kd ([2]; PARP1 HTRF, PARP1 probe displacement HTRF) [nM]",Compound,Selectivity ([2]; probe displacement HTRF)
> 10000,100 to 1000,1000 to 10000,,,,,,"CNC(=O)c1ccc(N2CCC(N3CCC(c4ncc(C(F)(F)F)c(=O)[nH]4)C3)CC2)cn1 (single isomer, unassigned) [Compound 56b]",− (− indicates a value of less than 10)
1000 to 10000,10 to 100,10 to 100,,,,,,"CNC(=O)c1ccc(N2CCC(CN3CCCC(c4nc5ccccc5c(=O)[nH]4)C3)CC2)cn1 (single isomer, unassigned) [Compound 9a]",+++ (+++ indicate a value of at least 100)
,,,100 to 1000,< 10,< 10,,,"CNC(=O)c1ccc(N2CCC(N3CCC(c4cc5ccc(F)cc5c(=O)[nH]4)C3)CC2)c(C#N)n1 (single isomer, unassigned) [Compound 396a]",+++ (+++ indicate a value of at least 100)
1000 to 10000,1000 to 10000,1000 to 10000,,,,,,"CNC(=O)c1ccc(N2CC(N3CCCC(Cc4nc5ccccc5c(=O)[nH]4)C3)C2)cn1 (single isomer, unassigned) [Compound 51b]",− (− indicates a value of less than 10)
> 10000,< 10,< 10,,,,,,"O=C(NCCF)c1ccc(N2CCC(N3CCCC(c4nc5ccccc5c(=O)[nH]4)C3)CC2)cn1 (single isomer, unassigned) [Compound 110a]",+++ (+++ indicate a value of at least 100)
> 10000,10 to 100,10 to 100,,,,,,"CNC(=O)c1ccc(N2CCC(N3CCC(c4ccc(OC)c(=O)[nH]4)C3)CC2)c(C(F)(F)F)n1 (single isomer, unassigned) [Compound 152b]",++ (++ indicates a value of 50 to less than 100)
> 10000,100 to 1000,100 to 1000,,,,,,"CNC(=O)c1ccc(N2CCC(N3CCC(c4nc(C)cc(=O)[nH]4)C3)CC2)cn1 (single isomer, unassigned) [Compound 97b]",− (− indicates a value of less than 10)
,,,100 to 1000,10 to 100,10 to 100,,,"CNC(=O)c1cc(Cl)c(N2CCC(N3CCC(c4cc5ccc(F)cc5c(=O)[nH]4)C3)CC2)cn1 (single isomer, unassigned) [Compound 236a]",+ (+ indicates a value of 10 to less than 50)
1000 to 10000,10 to 100,10 to 100,,,,,,"CNC(=O)c1ccc(OCCN2CCC(c3nc4ccccc4c(=O)[nH]3)C2)cn1 (single isomer, unassigned) [Compound 62a]",++ (++ indicates a value of 50 to less than 100)
,,,1000 to 10000,1000 to 10000,100 to 1000,,,"CC(=O)Nc1ccc(N2CCC(N3CCC(c4nc5ccccc5c(=O)[nH]4)C3)CC2)cn1 (single isomer, unassigned) [Compound 262a]",− (− indicates a value of less than 10)
> 10000,1000 to 10000,1000 to 10000,,,,,,"CNC(=O)c1ccc(N2CCC(N3CCCC(C)(c4nc5ccccc5c(=O)[nH]4)C3)CC2)cn1 (single isomer, unassigned) [Compound 66a]",− (− indicates a value of less than 10)
1000 to 10000,10 to 100,10 to 100,,,,,,CNC(=O)c1ccc(N2CCC(N3CCCC(c4nc5ccccc5c(=O)[nH]4)C3)CC2)c(C(F)(F)F)n1 (racemic) [Compound 138rac],++ (++ indicates a value of 50 to less than 100)
,,,100 to 1000,< 10,< 10,,,"CNC(=O)c1ccc(N2CCC(N3CC4(c5nc6ccccc6c(=O)[nH]5)CCC3C4)CC2)cn1 (single isomer, unassigned) [Compound 245a]",+++ (+++ indicate a value of at least 100)
,,,100 to 1000,< 10,< 10,,,"CCc1ccc(C2CCN(C3CCN(c4ccc(C(=O)NC)cc4F)CC3)C2)[nH]c1=O (single isomer, unassigned) [Compound 366b]",++ (++ indicates a value of 50 to less than 100)
100 to 1000,< 10,< 10,,,,,,"CNC(=O)c1ccc(OCCN2CCCC(c3nc4ccccc4c(=O)[nH]3)C2)cn1 (single isomer, unassigned) [Compound 65a]",+++ (+++ indicate a value of at least 100)
100 to 1000,< 10,< 10,,,,,,"O=C(NCC(F)(F)F)c1ccc(N2CCC(N3CCC(c4nc5ccccc5c(=O)[nH]4)C3)CC2)cn1 (single isomer, unassigned) [Compound 130b]",+++ (+++ indicate a value of at least 100)
